In EP4800015A1, “AZABICYCLO DERIVATIVE AND PREPARATION METHOD THEREFOR, AND USE” (Zhejiang Hisun Pharmaceutical Co., Ltd., priority 2023, dated 2025) one finds IC50 data, which are given here for 13 compounds.

Experiment [1] deals with SW48 cells. The experiment can be described thus: Inhibition of SW48 cell proliferation (CellTiter-Glo). Format: cell-based. As to conditions: Homo sapiens; SW48 cells (MSI-H), 120 hours. As to the method: The following method was used to determine the effect of the compounds of the present disclosure on SW48 cell proliferation. SW48 cells (MSI-H cells) were purchased from American ATCC cell bank and cultured in Leibovitz's L-15 medium (Gibco, catalog No. 11415064) containing 10% fetal bovine serum, 100 U penicillin, and 100 µg/mL streptomycin. Cell viability was determined by CellTiter-Glo® Luminescent Cell Viability Assay kit (Promega, catalog No. G7573).
(§1) The experiment was performed according to the steps of the kit manual, which is briefly described as follows: test compounds were first dissolved in DMSO to prepare 10 mM stock solutions, and then diluted with medium to prepare test samples, with final compound concentrations ranging from 10000 nM to 1.52 nM. Cells in logarithmic growth phase were seeded into 96-well cell culture plates at a density of 500 cells per well and cultured overnight at 37 °C in an air incubator, then test compounds were added and cultivation continued for 120 hours. After the cultivation was completed, 40 µL of CellTiter-Glo detection reagent was added to each well, shaken for 5 minutes, and then left to stand for 10 minutes. Luminescence values of each well were read on a microplate reader using Luminescence mode. The percentage inhibition at each concentration point was calculated by comparison with the control group (0.1% DMSO), and then IC50 values for the compounds for inhibition of cell proliferation were obtained using nonlinear regression analysis of compound concentration logarithm versus inhibition rate in GraphPad Prism 9 software, as shown in Table 2.
The IC50 value results of the compounds of the present disclosure are represented by A, wherein "A" indicates 1 nM < IC50 ≤ 100 nM. Table 2 IC50 data for inhibition of SW48 cell proliferation by the compounds of the present disclosure

The target of experiment [2] is T1, recombinant human WRN (Homo sapiens, UniProt Q14191).
T1 construct: purchased BPS 101264
The experiment can be described thus: Inhibition of WRN enzyme activity (ATPase), ADP-Glo Kinase Assay. Format: biochemical. As to conditions: WRN protein 5 nM, Flap 0.1 nM, ATP 30 µM; read-out: IC50. In a few lines:
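ATPase activity was measured by ADP-Glo luminescence after a 10-min room-temperature reaction with 30 µM ATP and 0.1 nM Flap26 oligonucleotide substrate. The 5 nM WRN had first been exposed to compound (0.004–1000 nM) for 15 min in pH 7.5 Tris buffer with 2 mM MgCl2. IC50 values came from log-concentration regression against the DMSO control.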

Experiment [3] relates to RL95-2 cells. The experiment can be described thus: Inhibition of RL95-2 cell proliferation (CellTiter-Glo). As to conditions: Homo sapiens; RL95-2 cells (MSI-H), 120 hours. Format: cell-based. How it is done:
The following method was used to determine the effect of the compounds of the present disclosure on RL95-2 cell proliferation. RL95-2 cells (MSI-H cells) were purchased from Cell Resource Center of Shanghai Institutes for Biological Sciences, Chinese Academy of Sciences, and cultured in DMEM/F12 medium (Gibco, catalog No. A4192001) containing 10% fetal bovine serum, 100 U penicillin, and 100 µg/mL streptomycin. Cell viability was determined by CellTiter-Glo® Luminescent Cell Viability Assay kit (Promega, catalog No. G7573).
as §1, with “a 5% CO2” for “an air”, “incubator, and” for “incubator,”, “50” for “40”, “3.” for “2.”
The IC50 value results of the compounds of the present disclosure are represented by A, wherein "A" indicates 1 nM < IC50 ≤ 100 nM. Table 3 IC50 data for inhibition of RL95-2 cell proliferation by the compounds of the present disclosure

The structures appear in SMILES notation.

T1 sequence (Q14191 whole entry): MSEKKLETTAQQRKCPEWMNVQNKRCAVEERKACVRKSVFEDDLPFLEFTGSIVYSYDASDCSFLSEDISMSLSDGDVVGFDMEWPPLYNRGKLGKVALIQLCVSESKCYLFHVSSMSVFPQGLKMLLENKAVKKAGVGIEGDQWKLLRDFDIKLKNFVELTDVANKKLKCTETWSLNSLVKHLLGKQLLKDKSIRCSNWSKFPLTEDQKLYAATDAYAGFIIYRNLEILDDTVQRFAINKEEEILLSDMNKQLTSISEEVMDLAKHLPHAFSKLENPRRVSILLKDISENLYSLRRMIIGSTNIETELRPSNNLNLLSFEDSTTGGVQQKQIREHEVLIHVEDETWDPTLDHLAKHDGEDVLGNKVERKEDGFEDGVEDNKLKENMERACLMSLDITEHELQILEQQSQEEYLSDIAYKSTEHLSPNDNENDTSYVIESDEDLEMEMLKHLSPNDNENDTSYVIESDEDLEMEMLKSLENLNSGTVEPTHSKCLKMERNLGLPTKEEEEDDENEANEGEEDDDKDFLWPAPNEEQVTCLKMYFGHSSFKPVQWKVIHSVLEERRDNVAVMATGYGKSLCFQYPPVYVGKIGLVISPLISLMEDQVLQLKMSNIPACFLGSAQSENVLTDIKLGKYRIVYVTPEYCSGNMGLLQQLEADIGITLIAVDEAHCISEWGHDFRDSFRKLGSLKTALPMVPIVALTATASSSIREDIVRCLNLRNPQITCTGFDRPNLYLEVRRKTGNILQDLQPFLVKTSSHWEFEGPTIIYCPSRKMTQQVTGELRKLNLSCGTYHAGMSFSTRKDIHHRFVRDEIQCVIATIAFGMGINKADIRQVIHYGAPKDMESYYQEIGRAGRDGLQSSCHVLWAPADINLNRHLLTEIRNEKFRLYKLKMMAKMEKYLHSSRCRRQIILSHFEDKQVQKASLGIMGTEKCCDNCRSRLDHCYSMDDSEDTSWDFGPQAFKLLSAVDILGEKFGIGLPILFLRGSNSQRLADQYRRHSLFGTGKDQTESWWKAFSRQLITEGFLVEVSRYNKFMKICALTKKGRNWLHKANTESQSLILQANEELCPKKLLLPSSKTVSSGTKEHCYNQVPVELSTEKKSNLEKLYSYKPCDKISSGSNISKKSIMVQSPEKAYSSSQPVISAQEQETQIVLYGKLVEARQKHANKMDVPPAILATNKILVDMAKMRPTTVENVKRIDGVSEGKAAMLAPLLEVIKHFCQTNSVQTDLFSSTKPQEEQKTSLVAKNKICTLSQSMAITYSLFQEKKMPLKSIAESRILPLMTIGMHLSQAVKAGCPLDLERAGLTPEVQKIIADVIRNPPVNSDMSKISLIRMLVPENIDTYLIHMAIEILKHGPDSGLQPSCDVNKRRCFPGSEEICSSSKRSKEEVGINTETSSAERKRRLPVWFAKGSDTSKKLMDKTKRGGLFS

With `CCc1c(N2CCN(C(=O)c3ncnc(C)c3O)CC2)c(=O)n2nc(-c3ccc4n[nH]cc4c3)nc2n1CC(=O)Nc1ccc(C(F)(F)F)cc1Cl` [Example 112, N-(2-chloro-4-(trifluoromethyl)phenyl)-2-(5-ethyl-6-(4-(5-hydroxy-6-methylpyrimidine-4-carbonyl)piperazin-1-yl)-2-(1H-indazol-5-yl)-7-oxo-[1,2,4]triazolo[1,5-a]pyrimidin-4(7H)-yl)acetamide], the IC50 in experiment [1], in experiment [2] and in experiment [3] was 1 to 100 nM each time.
For the compound `CCc1c(N2CCN(C(=O)c3ncnc(C)c3O)CC2)c(=O)n2nc(C3=CCCCCC3)nc2n1CC(=O)Nc1ccc(C(F)(F)F)cc1F` [Example 49, 2-(2-(cyclohept-1-en-1-yl)-5-ethyl-6-(4-(5-hydroxy-6-methylpyrimidine-4-carbonyl)piperazin-1-yl)-7-oxo-[1,2,4]triazolo[1,5-a]pyrimidin-4(7H)-yl)-N-(2-fluoro-4-(trifluoromethyl)phenyl)acetamide], the IC50 in experiment [1], in experiment [2] and in experiment [3] was 1 to 100 nM throughout.
Regarding `CCc1c(N2CCN(C(=O)c3ncnc(C)c3O)CC2)c(=O)n2nc(C3=CCCCCC3)nc2n1CC(=O)Nc1ccc(C(F)(F)F)cc1C` [Example 47, 2-(2-(cyclohept-1-en-1-yl)-5-ethyl-6-(4-(5-hydroxy-6-methylpyrimidine-4-carbonyl)piperazin-1-yl)-7-oxo-[1,2,4]triazolo[1,5-a]pyrimidin-4(7H)-yl)-N-(2-methyl-4-(trifluoromethyl)phenyl) acetamide], the half-maximal inhibitory concentration (IC50) in experiment [1], in experiment [2] and in experiment [3] was 1 to 100 nM throughout.
On to `CCc1c(N2CCN(C(=O)c3ncnc(C)c3O)CC2)c(=O)n2nc(C3=CCC4(CC3)CC4)nc2n1CC(=O)Nc1ccc(S(F)(F)(F)(F)F)cc1` [Example 120, 2-(5-ethyl-6-(4-(5-hydroxy-6-methylpyrimidine-4-carbonyl)piperazin-1-yl)-7-oxo-2-(spiro[2.5]oct-5-en-6-yl)-[1,2,4]triazolo[1,5-a]pyrimidin-4(7H)-yl)-N-(4-(pentafluoro-λ6-sulfaneyl)phenyl)ace tamide], for which the concentration for half-maximal inhibition (IC50) in experiment [1], in experiment [2] and in experiment [3] was 1 to 100 nM in each case.
Turning to `CCc1c(N2CCN(C(=O)c3ncnc(C)c3O)CC2)c(=O)n2nc(-c3nc4ccccc4s3)nc2n1CC(=O)Nc1ccc(C(F)(F)F)cc1Cl` [Example 133, 2-(2-(benzo[d]thiazol-2-yl)-5-ethyl-6-(4-(5-hydroxy-6-methylpyrimidine-4-carbonyl)piperazin-1-yl)-7-oxo-[1,2,4]triazolo[1,5-a]pyrimidin-4(7H)-yl)-N-(2-chloro-4-(trifluoromethyl)phenyl)acetamide], the IC50 in experiment [1], in experiment [2] and in experiment [3] was 1 to 100 nM throughout.
On to `CCc1c(N2CCN(C(=O)c3ncccc3O)CC2)c(=O)n2nc(C3=CC4CC(=O)CC4C3)nc2n1CC(=O)Nc1ccc(C(F)(F)F)cc1Cl` (stereo not drawn) [Example 22, N-(2-chloro-4-(trifluoromethyl)phenyl)-2-(5-ethyl-6-(4-(3-hydroxypicolinoyl)piperazin-1-yl)-7-oxo-2-(5-oxo-1,3a,4,5,6,6a-hexahydropentalen-2-yl)-[1,2,4]triazolo[1,5-a]pyrimidin-4(7H)-yl)acet amide], for which the 50% inhibitory concentration (IC50) in experiment [1], in experiment [2] and in experiment [3] was 1 to 100 nM throughout.
On to `CCc1c(N2CCN(C(=O)c3ncnc(C)c3O)CC2)c(=O)n2nc(-c3ccc4c(c3)CCCO4)nc2n1CC(=O)Nc1ccc(C(F)(F)F)cc1Cl` [Example 130, N-(2-chloro-4-(trifluoromethyl)phenyl)-2-(2-(chroman-6-yl)-5-ethyl-6-(4-(5-hydroxy-6-methylpyrimidine-4-carbonyl)piperazin-1-yl)-7-oxo-[1,2,4]triazolo[1,5-a]pyrimidin-4(7H)-yl)acetamide], for which the IC50 in experiment [1], in experiment [2] and in experiment [3] was 1 to 100 nM each time.
In the case of `CCc1c(N2CCN(C(=O)c3ncnc(C)c3O)CC2)c(=O)n2nc(C3=CCC4(CC3)COC4)nc2n1CC(=O)Nc1ccc(S(F)(F)(F)(F)F)cc1Cl` [Example 175, N-(2-chloro-4-(pentafluoro-λ6-sulfaneyl)phenyl)-2-(5-ethyl-6-(4-(5-hydroxy-6-methylpyrimidine-4-carbonyl)piperazin-1-yl)-7-oxo-2-(2-oxaspiro[3.5]non-6-en-7-yl)-[1,2,4]triazolo[1,5-a]pyrimidin-4(7H)-yl)acetamide], the IC50 in experiment [1] and in experiment [2] was 1 to 100 nM in each case.
In the case of `[2H]c1cc2cc(-c3nc4n(CC(=O)Nc5ccc(C(F)(F)F)cc5Cl)c(CC)c(N5CCN(C(=O)c6ncnc(C)c6O)CC5)c(=O)n4n3)ccc2s1` [Example 169, 2-(2-(benzo[b]thiophen-5-yl-2-d)-5-ethyl-6-(4-(5-hydroxy-6-methylpyrimidine-4-carbonyl)piperazin-1-yl)-7-oxo-[1,2,4]triazolo[1,5-a]pyrimidin-4(7H)-yl)-N-(2-chloro-4-(trifluoromethyl)phenyl) acetamide], the IC50 in experiment [1] and in experiment [2] was 1 to 100 nM in each case.
`CCc1c(C2=CCN(C(=O)c3ncnc(C)c3O)CC2)c(=O)n2nc(C3=CCCCCC3)nc2n1CC(=O)Nc1ccc(S(F)(F)(F)(F)F)cc1` [Example 91, 2-(2-(cyclohept-1-en-1-yl)-5-ethyl-6-(1-(5-hydroxy-6-methylpyrimidine-4-carbonyl)-1,2,3,6-tetra hydropyridin-4-yl)-7-oxo-[1,2,4]triazolo[1,5-a]pyrimidin-4(7H)-yl)-N-(4-(pentafluoro-λ^6-sulfaneyl)phenyl)acetamide]: the IC50 in experiment [1] and in experiment [2] was 1 to 100 nM in each case.
Turning to `Cc1ncnc(C(=O)N2CCN(c3c(C4CCC4)n(CC(=O)Nc4ccc(C(F)(F)F)cc4Cl)c4nc(-c5ccc6c(c5)CCO6)nn4c3=O)CC2)c1O` [Example 155, N-(2-chloro-4-(trifluoromethyl)phenyl)-2-(5-cyclobutyl-2-(2,3-dihydrobenzofuran-5-yl)-6-(4-(5-hydroxy-6-methylpyrimidine-4-carbonyl)piperazin-1-yl)-7-oxo-[1,2,4]triazolo[1,5-a]pyrimidin-4(7H)-yl)acetamide], the IC50 in experiment [1] and in experiment [2] was 1 to 100 nM throughout.
`CCc1c(N2CCN(C(=O)c3ncnc(C)c3O)CC2)c(=O)n2nc(-c3ccc4c(c3)CCO4)nc2n1CC(=O)Nc1ccc(S(F)(F)(F)(F)F)cc1Cl` [Example 87, N-(2-chloro-4-(pentafluoro-λ^6-sulfaneyl)phenyl)-2-(2-(2,3-dihydrobenzofuran-5-yl)-5-ethyl-6-(4-(5-hydroxy-6-methylpyrimidine-4-carbonyl)piperazin-1-yl)-7-oxo-[1,2,4]triazolo[1,5-a]pyrimidin-4(7H)-yl)acetamide]: the IC50 in experiment [1] and in experiment [2] was 1 to 100 nM each time.
For `[2H]c1sc2ccc(-c3nc4n(CC(=O)Nc5ccc(C(F)(F)F)cc5Cl)c(CC)c(N5CCN(C(=O)c6ncnc(C)c6O)CC5)c(=O)n4n3)cc2c1[2H]` [Example 170, 2-(2-(benzo[b]thiophen-5-yl-2,3-d2)-5-ethyl-6-(4-(5-hydroxy-6-methylpyrimidine-4-carbonyl)piperazin-1-yl)-7-oxo-[1,2,4]triazolo9[1,5-a]pyrimidin-4(7H)-yl)-N-(2-chloro-4-(trifluoromethyl)phenyl)acetamide], the IC50 in experiment [1] and in experiment [2] was 1 to 100 nM each time.
